Patent publication US10071107B2, “Pharmaceutical composition for prevention, treatment or delay of Alzheimer's disease or dementia containing G protein-coupled receptor 19 agent as active ingredient” (SEOUL NATIONAL UNIVERSITY R&DB FOUNDATION, priority 2015, dated 2018)

Key:
[1] = tested on: Alzheimer's mouse model (5×FAD); assay: Morris water maze (spatial learning, probe test); type: in vivo; settings: 1 mg/kg twice a week, total 20 times
Experimental: [Experimental Method: Morris Water maze] An acryl-made platform having a diameter of 10 cm was installed in a circular water tank having a size of diameter×height=150 cm×80 cm and a camera was installed at the center of the water tank on the ceiling where the water tank was placed. Around the water tank, a horizontal cue, a vertical grid cue, and a circular object cue were disposed, respectively. For the experimental preparation, water at about 26° C. was filled in the water tank up to a height of about 1 cm from the top of the platform and a white water paint was dissolved.
At a first experimental day, the mouse was flooded at one position of the prepared water tank and swam for 3 minutes and then induced to move to the platform location by an experimenter's hand after 3 minutes and left for 1 minute on the platform. After 1 minute, the mouse was lifted and covered by both hands and put in a cage again after 1 minute. This process was repeated three times. […] The process was repeated everyday until a difference between mouse groups was decreased. At the final experimental day, the mouse was flooded in the water tank after removing the platform in the water tank and a video for 90 seconds was recorded and then a moving path and the number of platform pass times of the mouse in the water tank, a time latency of the platform location, and the like were analyzed by using analysis software.
After 1 mg/kg of PBS or sodium taurodeoxycholate was injected to a control mouse and an Alzheimer's mouse (4 per group) twice a week and a total of 20 times, a result of evaluation a spatial learning ability through a water maze experiment was illustrated in FIG. 2. It was verified that a time required when the Alzheimer's mouse found the platform was shortened by administrating the sodium taurodeoxycholate drug.
After 1 mg/kg of PBS or sodium taurodeoxycholate was injected to a control mouse and an Alzheimer's mouse (more than 10 per group) twice a week and a total of 20 times, a mouse behavior pattern was tracked in the water tank without the platform. A representative image of the result of tracking the mouse movement in the water tank without the platform was illustrated in FIG. 3.
In the above experiment, the result of measuring the number of times when the mouse crossed the platform location and a time latency at the platform location was illustrated in FIG. 4 and in the sodium taurodeoxycholate administration mouse group, it was verified that the degree of memorizing the platform was high.

Alzheimer's animal model [2] = assay: Blood analysis of inflammatory substances (bioplex); type: in vivo, mouse; settings: 1 mg/kg twice per week, total 20 times; FIG. 9
Experimental: [Experimental Method: Blood analysis] The blood was obtained from the mouse by cardiac blood collection or orbital blood collection. For analyzing the inflammatory substance, the obtained blood was left for 2 hours at room temperature and centrifuged, a supernatant was taken, and each inflammatory substance was quantitatively analyzed by using a kit and equipment for bioplex. In order to analyze biochemical and hematopoietic cells, the obtained blood was put in an appropriate tube or container and applied to a biochemical analyzer and a hematology analyzer, respectively, to obtain data. FIG. 9 illustrates a result of analyzing an inflammatory substance in the blood by extracting the blood of the mouse after 1 mg/kg of PBS or sodium taurodeoxycholate is injected to a control mouse and an Alzheimer's mouse twice per week and a total of 20 times.

Alzheimer's animal model [3] = assay: Blood analysis of biochemical components (metabolites); type: in vivo, mouse; settings: 1 mg/kg twice per week, total 20 times; FIG. 10
Experimental: [Experimental Method: Blood analysis] The blood was obtained from the mouse by cardiac blood collection or orbital blood collection. For analyzing the inflammatory substance, the obtained blood was left for 2 hours at room temperature and centrifuged, a supernatant was taken, and each inflammatory substance was quantitatively analyzed by using a kit and equipment for bioplex. In order to analyze biochemical and hematopoietic cells, the obtained blood was put in an appropriate tube or container and applied to a biochemical analyzer and a hematology analyzer, respectively, to obtain data. After 1 mg/kg of PBS or sodium taurodeoxycholate is injected to the control mouse and the Alzheimer's mouse twice per week and a total of 20 times, the blood of the mouse was extracted and then the biochemical components in the blood were analyzed. The result was illustrated in FIG. 10.

[4] = tested on: Alzheimer's animal model (5×FAD); assay: TUNEL staining of apoptotic region in brain tissue; type: in vivo, mouse; settings: frontal cortex, FIG. 8
Experimental: [Experimental Method: Tissue fluorescent staining] A mouse was anesthetized, the limbs were fixed and then the mouse was cut to expose the heart by scissors and tweezers. The upper right atrium was slightly cut by the scissors and punctured, a needle was put in the left ventricle, and PBS was injected and perfused. When the colors of the blood vessel and the organs turned to white, a 4% paraformaldehyde (PFA) solution was replaced and injected until muscle contraction occurred and the soles were hard. […] The cut tissue piece was attached on the slide by using a brush and blocked for preventing a nonspecific antibody binding, and then reacted with a specific antibody (coupled with a fluorescence) to a protein to be reported. […] The photographed image was converted into numeral values by measuring the fluorescent strength for each fluorescence by analysis software.
The brain tissue of the Alzheimer's model mouse administrated with the drug was extracted and a reduction of the lesion such as an apoptotic lesion in the frontal cortex and the hippocampus area was measured by fluorescent-staining, and the result was illustrated in FIG. 8. The PBS or sodium taurodeoxycholate was administrated in the Alzheimer's mouse and a region damaged by apoptosis in the frontal cortex of the administrated mouse was analyzed by TUNEL staining. […]

[5] = tested on: Alzheimer's animal model (5×FAD); type: in vivo, mouse; settings: 1 mg/kg twice a week, total 20 times
[6] = probe test without platform, FIG. 4

## C[C@H](CCC(=O)NCCS(=O)(=O)[O-])[C@H]1CC[C@H]2[C@@H]3CC[C@@H]4C[C@H](O)CC[C@]4(C)[C@H]3C[C@H](O)[C@]12C.[Na+] [sodium taurodeoxycholate]
[1]; [6]
  number of times of crossing the platform location: significantly increased
  time latency at the platform location: significantly increased
[1]; water maze, FIG. 2
  time required when the Alzheimer's mouse found the platform: shortened
[1]; water tank without platform, FIG. 3
  moving pattern to the position of the platform: more actively observed
[1]; water tank without platform, FIG. 4
  degree of memorizing the platform: high
Alzheimer's animal model [2]
  amount of CCL3 in the blood: increased
Alzheimer's animal model [3]
  amount of glucose in the blood: decreased
[4]
  apoptotic region in the brain tissue: reduced
[5]; frontal cortex area, FIG. 7
  expression of iNOS: significantly reduced
[5]; frontal cortex, FIGS. 5 and 6
  cell distribution of astrocyte: significantly reduced
  cell distribution of microglia: significantly reduced
  formation of the amyloid β plague: significantly reduced
[5]; hippocampus area, FIGS. 5 and 6
  astrocyte cell distribution: significantly reduced
